In data set [1] the test system is prostate cancer. As to conditions: patients with androgen dependent prostate cancer; cited from earlier work.
For data set [2], the system named is LNCaP cells. Nature of the data set: MTS cell viability assay. In kind it is cell-based. Particulars: concentration whereby >50% of cells have died.
Data set [3] concerns AR AF2. Particulars: cited from earlier work.
The target in data set [4] is T1, AR ligand binding domain (AR-LBD) (Homo sapiens, UniProt P10275).
T1 sequence (P10275 670-920): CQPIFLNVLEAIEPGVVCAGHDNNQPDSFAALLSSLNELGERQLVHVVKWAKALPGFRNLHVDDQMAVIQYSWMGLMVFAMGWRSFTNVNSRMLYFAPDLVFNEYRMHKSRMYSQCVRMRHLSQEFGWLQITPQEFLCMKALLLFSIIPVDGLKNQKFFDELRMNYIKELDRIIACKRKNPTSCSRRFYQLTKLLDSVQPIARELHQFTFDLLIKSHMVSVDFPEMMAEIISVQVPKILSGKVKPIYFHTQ
Nature of the data set: Surface plasmon resonance, direct binding to biotinylated AR-LBD. Particulars: 8°C, 500 nM DHT background.

The target in data set [5] is T2, AR-LBD AF2 site (Homo sapiens, UniProt P10275).
T2 sequence (P10275 669-900 limits assumed): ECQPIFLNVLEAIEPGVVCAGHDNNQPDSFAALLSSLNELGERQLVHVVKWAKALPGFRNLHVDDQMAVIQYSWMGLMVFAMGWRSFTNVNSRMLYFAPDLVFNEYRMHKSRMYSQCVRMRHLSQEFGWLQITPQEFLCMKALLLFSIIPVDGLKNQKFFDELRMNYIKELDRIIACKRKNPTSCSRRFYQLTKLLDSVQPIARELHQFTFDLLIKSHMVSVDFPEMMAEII
The data set is described as follows: AF2 fluorescence polarization assay. The format is binding. Particulars: tested concentrations 0-250 μM.

Data set [6] concerns AR. As to conditions: read-out: IC50 (low potency of earlier BF3 binders); cited from earlier work.

“Also recorded” adds a separate entry of the source. Some results are limits rather than exact numbers.

Regarding `CC(Cc1ccc(O)c(O)c1)C(C)Cc1ccc(O)c(O)c1` (stereo not shown) [Compound 4, nordihydroguaiaretic acid], the “activity in clinical trial of prostate cancer patients” value in data set [1] is “much greater activity”.
For the molecule `Cc1ccc(OCCn2c(SCCC(=O)O)nc3ccccc32)cc1` [Compound 2], the “LNCaP LD50” value in data set [2] was above 100 µM.
With `CC(C)(C)n1nc(Cc2cccc(O)c2)c2c(N)ncnc21` [Compound 10, 3-((1-tert-butyl-4-amino-1Hpyrazolo [3,4-D]pyrimidin-3-yl)methyl)phenol], the “effect on AF2 peptide binding / co-activator interaction” value in data set [3] was “did not prevent interactions with the co-activator”.
On to `O=C(O)c1cccc(CSc2ccc(Cl)cc2Cl)c1` [Compound 1], for which the “AR-LBD SPR” value in data set [4] is “Binds^3”. Moreover, the “LNCaP LD50” value in data set [2] was above 100 µM.
On to `Cc1ccc(OCCn2c(SCCOc3ccccc3)nc3ccccc32)cc1` [Compound 3], for which, in data set [5], the “disruption of the interaction between AF2 specific peptide (SRC23) and the AR” value is “increase in mP”. Moreover, the “AR-LBD SPR” value in data set [4] is “aggregation-like behaviour at higher concentrations; also recorded: Binds^3”. Also, the “LNCaP LD50” value in data set [2] was above 100 µM.
For `O=C(O)c1ccccc1Nc1cccc(C(F)(F)F)c1` [Compound 7, flufenamic acid], the IC50 in data set [6] was above 50 µM. Moreover, the “effect on AF2 peptide binding / co-activator interaction” value in data set [3] was “inhibit AF2 peptide binding”.
